Measurements taken from US20060148763A1, “Compounds and methods for regulating triglyceride levels” (priority 2005, published 2006).

System: serum triglyceride levels
Experiment: Rabbit hypercholesteremic model (2% cholesterol diet, 7 weeks): serum triglycerides
Type: in vivo, Male New Zealand white rabbits
Settings: hypercholesterol diet, n = 5, P5P 10 mg/kg/day, simvastatin 5 mg/kg/day oral
Procedure: The anti-atherogenic effects of P5P alone and in combination with simvastatin in a rabbit hypercholesteremic model were determined. The study compared the effects of P5P and simvastatin alone and in combination on atherosclerotic lesion formation, lipid profile (total cholesterol, LDL, HDL, triglycerides and oxidized LDL), homocysteine levels and various markers of inflammation (CRP, IL-1β, IL-6, IFN-γ and TNF-α).
Animals—Male New Zealand white rabbits 2.0-3.0 kg.
Animal Feed—The normocholesterol diet is Co-op Complete Rabbit Feed manufactured by Federated Co-operatives Limited (Saskatchewan). The 2% cholesterol diet is Test Diet 0009459 MRab/2% Chol 3/16 manufactured by Purina Mills (USA).
The rabbits were fed the normocholesterol and 2% cholesterol diet ad libitum. All animals received a timothy cube after blood sampling. […]
Group 3: Hypercholesterol diet+P5P 10 mg/kg/day
Group 4: Hypercholesterol diet+simvastatin 5 mg/kg/day
Group 5: Hypercholesterol diet+P5P 10 mg/kg/day+simvastatin 5 mg/kg/day
The rabbits were fed a normocholesterol or hypercholesterol diet for a total of 7 weeks. The normocholesterol rabbits were treated once per day with 1 ml of ethanol and 5 ml of RO water via a nasogastric tube. The hypercholesterol animals were treated once per day with either P5P (10 mg/kg), simvastatin (5 mg/kg) or a combination of P5P and simvastatin (P5P 10 mg/kg; simvastatin 5 mg/kg) via a nasogastric tube. The P5P was dissolved in 5 ml of 0.05 N NaOH so that the pH of the solution is approximately 7. The simvastatin was dissolved in 1 ml of anhydrous ethanol.
Five ml of blood was collected from the marginal ear vein of the rabbits at 0, 2, 4 and 6 weeks. Prior to blood collection the animals were sedated with 1 mg/kg of acepromazine. Following collection, the serum was separated. The serum is aliquoted (500 μl) and frozen at −80° C. until used for the assaying various lipids (total cholesterol, LDL, HDL, triglycerides, oxidized LDL) and cytokines (CRP, IL-1β, IL-6, IFN-γ and TNF-α).
At 7 weeks, the animals were anesthetized and 10 ml of blood was collected. Then the animals were euthanized, and the heart and thoracic aorta removed. The hearts and aortas were frozen in liquid nitrogen or an ethanol dry ice bath and stored at −80° C. until analyzed.
Test Articles—P5P (pyridoxal 5′-phosphate monohydrate) was purchased from Sigma (P82870). Simvastatin is obtained from ACIC Fine Chemicals Inc. Two test compound vials were provided for each animal for each day. The first vial (small) was diluted in 1 ml of anhydrous ethanol. The second vial was diluted in either 5 ml of RO water or 5 ml of 0.05 N NaOH. The diluent for each vial was clearly marked on the vial. The test solutions were prepared fresh each day just before they were administered to the animals. The stock P5P was stored in a refrigerator at 4° C. under low light conditions. The simvastatin was stored following the manufacture recommendations. The individual test vials were stored in a refrigerator at 4° C. under low light conditions.
Test Article(s) Dose, Route of Administration and Duration—The rabbits were treated orally with the drugs, once per day for a total of 7 weeks. The contents of vial one (small; 1 ml) were given to the animals first, followed by the contents of vial 2 (large; 5 ml). The test compound treatments were followed by a 5 ml RO water chaser.

Q: For `CCC(C)(C)C(=O)O[C@H]1C[C@@H](C)C=C2C=C[C@H](C)[C@H](CC[C@@H]3C[C@@H](O)CC(=O)O3)[C@H]21` [Simvastatin, simvastatin, reference compound], which “Triglycerides, Week 2” value is on record?
A: 0.986 mmol/L

Q: What about the “Triglycerides, Week 4” value of the same molecule?
A: 1.588 mmol/L

Q: What about the “Triglycerides, Week 6” value of the same molecule?
A: 2.158 mmol/L

Q: What about the “Triglycerides, Week 7” value (end of study) of the same molecule?
A: 1.766 mmol/L

Q: And the “Triglycerides, Week 0” value (start of study)?
A: 0.956 mmol/L
